Results taken from patent US20030036082A1, “Screening methods” (priority 2001, published 2003).

How the values were obtained:
total DGK activity [1] = assay: Reduction of total DGK activity by DGK inhibitor (data not shown); type: biochemical
[2] = system: epitrochlearis muscle from Wistar rats; assay: 3-O-methyl-glucose transport in isolated epitrochlearis muscle; type: cell-based; conditions: 25 μM inhibitor, Wistar rat epitrochlearis muscle
Protocol: The influence of total DGK activity on insulin-stimulated glucose uptake was assessed by measurements on epitrochlearis muscle from Wistar rats using a specific inhibitor for diacylglycerol kinase, DGK inhibitor II™ (Jang, Y. et al. (2000) Biochem. Pharmacol. 59: 763-772).
Media were prepared from a pre-gassed (95% O2/5% CO2) Krebs Henseleit buffer (KHB) containing 5 mM glucose and 0.1% BSA (RIA grade). Epitrochlearis muscles were incubated (20 min) in a shaking water bath (30° C.) in 2 ml of KHB, supplemented with 20 mM mannitol, with or without 2.4 nM insulin and 25 μM DGK-II inhibitor (Calbiochem). Muscles were transferred to KHB containing 8 mM 3-O-methyl[^3H]glucose (438 μCi/mmol; 1 Ci=[…]) and 12 mM [^14C]mannitol (42 μCi/mmol) and incubated (10 min) with or without insulin and 25 μM of DGKII inhibitor. 3-O-methyl-glucose transport activity was assessed as described (Wallberg-Henriksson et al. (1987) J. Biol. Chem. 262: 7665-7671) and expressed as micromoles per milliliter of intracellular water per hour.

[3] = diabetic GK rats, treatment with phlorizin; cited from earlier work
total DGK activity [4] = assay: Octyl glucoside/PS mixed-micelle assay of total DGK activity in gastrocnemius muscle after phlorizin treatment; type: in vivo; conditions: GK rats, phlorizin 0.8 g/kg body wt per day s.c. for 4 weeks
Protocol: (§1) In order to investigate the influence of DGKδ on insulin-stimulated glucose uptake in more detail, DGKδ expression studies and measurements of DGK activity were performed in GK rats, a lean animal model for type 2 diabetes (Goto et al., pp. 301-303 in: Frontiers in Diabetes Research (Shafrir E., Renold, A E, Eds.) London, John Libbey, 1988). Male GK rats (200-250 g) were obtained from the Karolinska Institute, Sweden. Weight-matched male Wistar rats served as controls (B&K Universal, Sollentuna, Sweden). All rats were maintained under a 12-hour light/dark cycle, and had free access to water and standard rodent diet. […]
Portions of the gastrocnemius skeletal muscle (approximately 30 mg) were crushed in liquid nitrogen, homogenized by sonication in ice-cold buffer containing 20 mM Tris-HCl, pH 7.5, 250 mM sucrose, 1 mM EDTA, 1 mM EGTA, 1 mM dithiothreitol (DTT), 1 mM PMSF, a 20 μg/ml concentration of each: leupeptin, pepstatin, aprotinin, and soybean trypsin inhibitor and centrifuged at 12,000×g for 10 min at 4° C. The supernatant was collected and protein concentration was determined.
An octyl glucoside/PS mixed-micelle assay of total DGK activity was performed using [γ-^32P] […] The region containing phosphatidic acid was quantified by phosphoimaging and densitometry.

DGKδ = DGKδ protein expression in gastrocnemius skeletal muscle by immunoblotting after phlorizin treatment; type: in vivo; conditions: GK rats, phlorizin 0.8 g/kg body wt per day s.c. for 4 weeks
Protocol: as §1, with “diet. Four groups of animals were studied: vehicle-treated Wistar rats (n=5), phlorizin-treated Wistar rats (n=6), vehicle-treated GK-rats (n=6) and phlorizin-treated GK-rats (n=6).” for “diet.”
Portions of the gastrocnemius skeletal muscle (approximately 30 mg) were crushed in liquid N2 and then lysed in ice-cold buffer (137 mM NaCl, 2.7 mM KCl, 1 mM MgCl2, 0.5 mM Na3VO4, 1% Triton X-100, 10% glycerol, 20 mM Tris pH 8.0, […] leupeptin, 0.2 mM PMSF, 10 mM NaF, 10 μg/ml aprotinin). […] The supernatant was removed and protein concentration was determined. […] Proteins were visualized by ECL and quantified by densitometric scanning.

Structure (SMILES) | reduction of total DGK activity (total DGK activity [1]) | decrease of insulin-stimulated glucose transport ([2]; 2.4 nM insulin) | basal glucose transport ([2]; without insulin) | blood glucose levels [3] | total DGK activity in muscle (total DGK activity [4]) | DGK content in the muscle (DGKδ protein level, immunoblot densitometry) (DGKδ)
O=c1c2ccccc2[nH]c(=S)n1CCN1CCC(=C(c2ccc(F)cc2)c2ccc(F)cc2)CC1 [DGK inhibitor II™] | 70% | approximately 30% | not affected | – | – | –
O=C(CCc1ccc(O)cc1)c1c(O)cc(O)cc1O[C@@H]1O[C@H](CO)[C@@H](O)[C@H](O)[C@H]1O [phlorizin, Phlorizin] | – | – | – | brings glucose levels back to normal values | increase of total DGK activity in GK rat muscle upon phlorizin treatment to a level measured in muscle from healthy Wistar rats | increase of DGK content in the muscle to approximately the same values as measured in healthy Wistar rats
